{
  "source": "patent US20180112006A1",
  "about": "“AGENTS, SYSTEMS AND METHODS FOR TREATING CANCER” (THE GENERAL HOSPITAL CORPORATION, priority 2015, published 2018)",
  "key": {"[1]": {"system": "NSC-TR-TK-GF1 cells", "assay": "Ganciclovir eradication of NSC-TR-TK-GF1 in mouse brains, Fluc bioluminescence imaging", "assay_type": "in vivo, mice", "conditions": "for eradication of NSCs in non-tumor bearing brain: ganciclovir 75 mg/kg i.p. daily", "experimental": "Two hundred thousand NSC-TR-TK-GF1 cells were either intracranially or intracarotidly injected in nude mice. Seven days after intracranial injection, or 3 days after intracarotid injection, daily PBS or ganciclovir (75 mg/kg body weight) were administrated via intraperitoneal (i.p.) injection for 2 weeks. NSC fate was assessed by bioluminescence imaging at various time points. To assess the eradication of therapeutic NSC post-tumor treatment, MBr-RmC cells (50 000 cells/mouse) were intracranially injected in nude mice and tumor-bearing mice were injected intratumorally with NSC-TR-TK-GF1 (50 000 cells/mouse) in the mouse brain. Daily PBS or ganciclovir were administrated via intraperitoneal injection after 4 days of NSC injection and the fate of NSCs was assessed by bioluminescence imaging at different time points."}, "[2]": {"system": "hNSC-TR-TK", "assay": "Ganciclovir eradication of modified human NSCs in vitro", "assay_type": "cell-based", "design": "dose or concentration left out as unconfirmed", "experimental": "(§1) (FIG. 6A) Plot showing the viability of MBr-FmC cells co-cultured with engineered human NSCs expressing TRAIL (TR), both TRAIL and HSV-TK (TR-TK) or GFP as measured by Fluc activity in vitro. (FIG. 6B) Plot showing the viability of modified human NSCs treated with ganciclovir (10 mg/ml). (FIG. 6C) Plot showing the viability of MBr-FmC cells co-cultured with engineered human MSC expressing TRAIL (TR), both TRAIL and HSV-TK (TR-TK) or GFP. (FIG. 6D) Plot showing the viability of modified human MSCs treated with ganciclovir (10 mg/ml).\n(§2) To make the therapeutic strategy more clinically relevant, human NSCs and human MSCs were used and the efficacy of the TRAIL/thymidine kinase system on metastatic tumor cells was tested. Human NSCs and MSCs were engineered to express secreted TRAIL (hNSC-TR/hMSC-TR) or co-express secreted TRAIL and HSV-TK (hNSC-TR-TK/hMSC-TR-TK), and established co-cultures of MBr-FmC with different proportions of modified human NSCs and MSCs."}, "[3]": {"system": "hMSC-TR-TK", "assay": "Ganciclovir eradication of modified human MSCs in vitro", "assay_type": "cell-based", "design": "dose or concentration left out as unconfirmed", "experimental": "as §1, §2"}, "[4]": {"system": "NSC-TR-TK-GF1 cells", "assay": "Ganciclovir elimination of NSC-TR-TK-GF1 in vitro", "assay_type": "cell-based, mouse", "conditions": "10 mg/ml GCV", "experimental": "(FIG. 11A) Representative phase and fluorescent images of NSC-TR-TK-GF1 in the presence or absence of 10 mg/ml GCV. Plot showing the Fluc activity of transduced cells in vitro. (FIG. 11B) Viability of MBr-FmC cells co-cultured with modified NSC at 1:1 ratio as measured by Fluc activity in vitro. The effects of NSC engineered with TK or TK-TR are shown. (FIG. 11C) Upper, outline of the experiment. Representative fluorescent images of metastatic MBr-RmC tumors in the mouse brain with or without NSC-TR-TK-GF1 administration to show post-tumor treatment (scale bar=100 μm).\nTo translate NSC-S-TRAIL therapy for brain metastasis into clinics, it is critical to follow the long-term fate of NSCs post-tumor treatment and ultimately, selectively eradicate therapeutic NSCs to avoid continuous access of therapeutic agent to normal brain tissue and to circumvent any malignant transformation of NSCs. To address this, NSC-S-TRAIL expressing cells were engineered to further express herpes simplex virus thymidine kinase (HSV-TK) and GFP-Fluc (GF1) (NSC-TR-TK-GF1) and tested for efficacy of thymidine kinase suicide therapy in vitro. […] Further, the efficacy of ganciclovir to eradicate NSCs in non-tumor bearing brain was tested. […] Next, the eradication of therapeutic NSCs post-tumor treatment in vivo was tested. NSC-TR-TK-GF1 expressing cells were intracranially injected into MBr-RmC tumor-bearing brains."}, "[5]": {"system": "metastatic MBr cells", "assay": "TRAIL killing of tumor cells versus normal cells", "assay_type": "cell-based"}},
  "data": [
    {"molecule": "Nc1nc(O)c2ncn(COC(CO)CO)c2n1", "note": "[ganciclovir]", "values": [
      {"measurement": "eradication of therapeutic NSCs post-tumor treatment", "setting": "[1]; MBr-RmC tumor-bearing brains, vs PBS", "result": "eradication of therapeutic NSC-TR-TK-GF1"},
      {"measurement": "eradication of NSCs in non-tumor bearing brain", "setting": "[1]; NSCs implanted via intracranial route", "result": "substantially eradicated"},
      {"measurement": "eradication of NSCs in non-tumor bearing brain", "setting": "[1]; NSCs via intracarotid route", "result": "substantially eradicated"},
      {"measurement": "eradication of hNSC-TR-TK in vitro", "setting": "[2]", "result": "successfully eradicated"},
      {"measurement": "eradication of hMSC-TR-TK in vitro", "setting": "[3]", "result": "successfully eradicated"},
      {"measurement": "elimination of modified NSC in vitro (Fluc, GFP)", "setting": "[4]", "result": "eliminated"}
    ]},
    {"molecule": "TRAIL", "values": [
      {"measurement": "killing of tumor cells versus normal cells", "setting": "[5]", "result": "specifically killed the tumor cells instead of the normal cells"}
    ]}
  ]
}
